Data set [1] can be described thus: Delivery agent plasma concentrations in humans after oral delivery agent capsules. Type of data set: in vivo, human. As to conditions: plasma; oral capsules, 750 mg, healthy human volunteers. As for the experimental part: Delivery agents 1-3 were investigated for their ability to penetrate the GI mucosa. The plasma concentration of each delivery agent was measured in human subjects after oral administration of delivery agent loaded capsules as a measure of each delivery agent's penetration efficiency.
Blood sampling for plasma delivery agent concentration determination (2 mL in sodium heparin tube) were drawn 15 minutes before dosing, and at 5, 10, 15, 30, and 45 minutes and 1, 1.5, 2, 3, 4, 6, 8, and 12 hours post-dose (14 samples per treatment) for delivery agent measurements in all treatment groups.
Two 18-gauge IV lines were situated prior to dosing; one for blood sampling, and the other for potential infusion of 20% glucose for subjects in groups 2 and 3. The subjects in group 1 only had one cannula inserted. The blood samples were centrifuged at 3000 rpm for a period of fifteen minutes at a temperature from about 2° C. to 8° C., within one hour of sample collection. Using a plastic pipette and without disturbing the red cell layer, the plasma from the collection tube was pipetted in duplicate for each analysis, blood glucose, Human Insulin, C-peptide, delivery agent into pre-labeled polypropylene tubes. The samples were stored at −70° C. until analysis.
The indicated doses were ingested by healthy human volunteers and the plasma concentrations of the delivery agents were monitored over time and the area under the curve (AUC) calculated. […] Similarly, oral administration of 800 mg of delivery agent number 3 produced more than a 23 fold greater penetration of the GI mucosa in humans than did oral administration of 750 mg of delivery agent 2 having n equal to 9 alkyl.

Data set [2] in a line: Delivery agent plasma concentrations in monkeys after oral administration. Type of data set: in vivo. The note with it: monkey, plasma, oral, 300 mg. As to the method:
Similar results were obtained when delivery agents 1-3 were administered orally to monkeys and the plasma concentrations of the delivery agents monitored over time and the AUC calculated.

Data set [3] relates to serum glucose. Briefly: Effective clinical dose of delivery agent in humans (delivery efficiency). Type of data set: in vivo, human. The note with it: active agent heparin. As for the experimental part:
Next, delivery agents 1-3 were compared for the ability to efficiently transport an active agent across the GI mucosa in a biologically active form by determining the relationship between delivery agent dose, dose of active agent and the glucose response. The effective dose of delivery agent necessary to deliver a therapeutic dose of active agent and produce a therapeutic effect was measured. For delivery agent 3, the active agent was insulin, and the therapeutic effect was determined by the ability of the delivery agent/insulin combination to lower serum glucose by at least 10% within one hour post administration. For delivery agents 1 and 2, the active agent was heparin, and the therapeutic effect was determined by […]

Data set [4] deals with blood glucose. In words: Example 7: postprandial blood glucose excursions after standardized breakfast, type 2 diabetic patients. Format: in vivo, human.
Method: A randomized, 3-period crossover, double-blind, double-dummy study was conducted in order to compare the effect (i.e., the postprandial pharmacokinetic and pharmacodynamic profiles) of an oral insulin formulation with that of s.c. administered short acting insulin on postprandial blood glucose excursions in Type 2 Diabetic subjects without any antidiabetic medication.
All patients received the same oral and SC injection treatments in a randomized sequence. […]
Blood samples for blood glucose determination (0.25 mL per sample) were taken at −1 min (baseline), 5 minutes after start of meal intake and thereafter in 5 minute intervals until 120 minutes, 10 minute intervals until 240 minutes, and 15 minute intervals until 360 minutes after start of meal intake (45 samples per session). Blood glucose concentrations were measured immediately after sample collection using an automated GOD method (Super GL Ambulance Glucose Analyzer, Ruhrtal Labortechnik, Delecke-Möhnesee, Germany). […]
For pharmacodynamic assessment, the following parameters were calculated: Maximal blood glucose excursion (BGmax), time to BGmax (tBGmax) Area under the blood glucose excursion curve in defined time-intervals (AUCBG 0-1h, AUCBG 0-2h, AUCBG 0-3h, AUCBG 0-4h, AUCBG 0-6h), maximal absolute blood glucose concentrations (BGabsmax), time to BGabsmax (tBGabsmax). […]

Experimental findings from US7429564B2, “Oral insulin therapy” (Emisphere Technologies, Inc., priority 2002, dated 2008) are described below.

Broadly, the AUC is the area under the concentration-time curve, a measure of exposure. Read a high AUC as high exposure. Take `O=C(O)CCCCCCCNC(=O)c1ccccc1O` [1 (SNAC), reference compound]: the exposure (AUC) in data set [1] came out at 3500 ng·h/mL; in data set [2] it was 45 ng·h/mL. Besides, in data set [3], the “Effective clinical dose of delivery agent” value was 2400 Mg.
The corresponding values for `O=C(O)CCCCCCCCCNC(=O)c1ccccc1O` [2 (SNAD), reference compound] are 2040 ng·h/mL, 82 ng·h/mL and 1500 Mg.
For “SC short-acting insulin: subcutaneous injected short acting insulin, Humalog injection 100 U/ml from Eli Lilly”, the “Mean fasting blood glucose at baseline (−1 minute)” value in data set [4] (12 U SC, dosed 15 min before meal, mean (range)) is reported as 143.11 mg/dL. For the same compound, in data set [4] (SC 12 U, 15 min before meal), the “Time to maximal glucose excursion (median)” value was determined as 1.3 h.
